Source: US8853227B2, “Methotrexate adjuvants to reduce toxicity and methods for using the same” (Tosk, Incorporated, priority 2008, dated 2014)
“Also recorded” adds a separate entry of the source.

How the values were obtained:
[1] = test system: Drosophila melanogaster; experiment: Fly Study I (protection from MTX-induced lethality); assay type: in vivo; details: for Flies Alive (Number): Fly Study I method, test compound + MTX (MTX Alone: no adjuvant), Table 3
Description: In this study, Drosophila melanogaster eggs (50 eggs per vial) were treated with either 0.005 mg TK-112690+0.4 mg MTX (Group 1), 0.01 mg TK-112690+0.4 mg MTX (Group 2), 0.04 mg TK-112690+0.4 mg MTX (Group 3), 0.1 mg TK-112690+0.4 mg MTX (Group 4), 0.4 mg MTX alone (Group 5) or saline blank (Group 6). Two vials of eggs for each dose group were evaluated for viability (viable flies plus pupae).
The efficacy of cancer chemotherapy can be improved if agents are available to reduce the adverse events associated with treatment with cytotoxic agents. To this end, Drosophila melanogaster (commonly know as the fruit fly) is an ideal organism to screen chemical compounds for such side-effect-reducing agents. This study is aimed at finding a dose of a 2,2′-anhydropyrimidine test article that protects against MTX-induced lethality in insects.
Increasing amounts of a 2,2′-anhydropyrimidine test article (typically 0.03 to 0.1 mg) are mixed in an aqueous solution with 0.3 (or 0.4) mg MTX. Four milliliters (mL) of a 2,2′-anhydropyrimidine test article+MTX solutions are added to an appropriate amount of instant fly medium. Fruit fly eggs are added to a 2,2′-anhydropyrimidine test article+MTX treated medium and incubated for up to 31 days. After the 31 day incubation, each assay is scored by the number of mature fly and pupae per vial.
The assays are set up in clear sterile polystyrene narrow diameter vials from Applied Scientific (Hampton, N.H.). Vials are stored in trays and incubated in a darkened 25° C. incubator.
Reagents and materials used are: 50 mg/mL MTX in H2O (pH 8), 20 mg/mL of the 2,2′-anhydropyrimidine test article in H2O, water, sterile polystyrene narrow diameter vials from Applied Scientific, Instant Drosophila Food Medium, Oregon-R Drosophila melanogaster, 25° C. incubator, and 15 mL polystyrene conical tubes
Each assay is performed in a separate fly vial. Increasing amounts of a 2,2′-anhydropyrimidine (0.005 to 1.0 mg) are tested for MTX side-effect-reduction on fly eggs. Amounts of the 2,2′-anhydropyrimidine test article are drawn from a 20 mg/mL stock solution dissolved in water. Nine mL of the 2,2′-anhydropyrimidine+0.3 (or 0.4) mg MTX solutions are pre-mixed with water in a 15 mL conical tube. Duplicate assays receive 4 mL of the 2,2′-anhydropyrimidine test article+0.3 (or 0.4) mg MTX solutions. Pre-measured amounts of instant drosophila medium are added to each assay to achieve optimal hydration level. Controls are (1) 4 mL water alone and (2) 0.3 (or 0.4) mg MTX alone. Precisely 50 fly eggs aged for ˜18 hours are added to each assay. Assays are capped with a fitted plug and incubated for 30 days in a darkened 25° C. incubator. Assays are scored by the number of dead pupae or adult flies per vial.

[2] = test system: AS283 cells; experiment: Cell Culture Study II (MTX cytotoxicity, CellTiter-Glo); assay type: cell-based, human; details: 72 hours
Description: In this study, AS283 cells were grown in RPMI-1640 supplemented with L-glutamine dipeptide, sodium pyruvate, HEPES, and 10% FBS. AS283 cells were used to seed three 96-well plates with 10,000 cells/well in a total volume of 50 μL. Medium alone wells were seeded 100 μL medium. Plates were incubated overnight. The following day, 25 μL of the TK-112690 and MTX stock solutions were added to the appropriate wells. TK-112690 was added first, followed by MTX in all wells. 25 μL of vehicle was added to TK-112690 alone wells. 25 μL of vehicle and 25 μL medium were added to vehicle control wells, and 50 μL medium was added to cell control wells. Cell viability was measured using CellTiter-Glo and DOX (10 μM) was used as a reference standard. The plates were incubated at 37° C., 5% CO2 for 72 hours then removed from the incubator and placed on the bench at room temperature for 30 min. The plates were not stacked or shaken. […] Luminescence was recorded on TriLux. […]
AS283 cells were grown in RPMI-1640 supplemented with L-glutamine dipeptide, sodium pyruvate, HEPES, and 10% FBS. […] Cell viability was measured using CellTiter-Glo and DOX (10 μM) was used as a reference standard.
The plates were incubated at 37° C., 5% CO2 for 72 hours then removed from the incubator and placed on the bench at room temperature for 30 min. […] Luminescence was recorded on TriLux.

SMILES | protection from MTX lethality in flies (viable flies plus pupae) ([1]; 0.005 to 0.1 mg TK-112690 + 0.4 mg MTX, p<0.01 vs MTX alone or saline) | Flies Alive (Number) [1] | effect of TK-112690 on MTX cytotoxicity (cell viability) ([2]; TK-112690 1, 10, 100 μM + MTX 0.01-100 μM) | effect of MTX on lethality in the flies ([1]; 0.4 mg MTX alone vs saline, p<0.01) | cytotoxicity to AS283 cancer cells ([2]; MTX 0.01-100 μM)
Cc1cn2c(nc1=O)O[C@H]1[C@H](O)[C@@H](CO)O[C@H]12 [TK-112690, 2,2′-anhydro-5-methyluridine] | highly significant | 8 | did not diminish the cytotoxicity of MTX; also recorded: no statistical difference | – | –
CN(Cc1cnc2nc(N)nc(N)c2n1)c1ccc(C(=O)N[C@@H](CCC(=O)O)C(=O)O)cc1 [MTX, N-[4-[[(2,4-diamino-6-pteridinyl)methyl]methylamino]benzoyl]-L-glutamic acid, reference compound] | – | 0 | – | highly significant | cytotoxic
